One data set concerns CHO. As to the kind of experiment: Cytotoxicity against CHO cells expressing human APP and wild type human presenilin-1 assessed as reduction of cell viability up to 40 uM after 24 hrs by Alamar blue assay. It is filed as cell-based, Cricetulus griseus. As to conditions: chinese hamster. Background: Resazurin is reduced to fluorescent resorufin, in cell work by metabolically active cells.

Data set [1] is described as follows: Modulation of gamma-secretase expressed in CHO cells co-expressing human APP and wild type human presenilin-1 assessed as inhibition of amyloid beta42 production by ELISA. It is filed as cell-based. A general note: ELISA stands for enzyme-linked immunosorbent assay.
Data set [2] addresses T1, Peroxisome proliferator-activated receptor delta (Homo sapiens) (UniProt Q03181).
T1 sequence (whole entry): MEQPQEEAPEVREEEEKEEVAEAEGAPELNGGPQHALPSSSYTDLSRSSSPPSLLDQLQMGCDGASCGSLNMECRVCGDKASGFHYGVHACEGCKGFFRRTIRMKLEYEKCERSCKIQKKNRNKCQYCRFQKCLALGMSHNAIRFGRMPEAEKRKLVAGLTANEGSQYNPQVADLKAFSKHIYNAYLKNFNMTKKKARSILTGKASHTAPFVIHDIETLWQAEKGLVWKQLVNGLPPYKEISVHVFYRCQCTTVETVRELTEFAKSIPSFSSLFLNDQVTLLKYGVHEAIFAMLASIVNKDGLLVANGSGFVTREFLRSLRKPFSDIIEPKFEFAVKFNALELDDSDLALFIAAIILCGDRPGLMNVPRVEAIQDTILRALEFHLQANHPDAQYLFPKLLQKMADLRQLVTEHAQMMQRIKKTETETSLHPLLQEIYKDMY
Kind of data set: Modulation of human PPARdelta-LBD expressed in african green monkey COS7 cells co-transfected with Gal4 assessed as activation of transactivation activity at 10 uM by luciferase assay. The note with it: COS-7. It is filed as cell-based.

In data set [3] the target is T2, Peroxisome proliferator-activated receptor gamma (Homo sapiens, UniProt P37231).
T2 sequence (P37231 whole entry): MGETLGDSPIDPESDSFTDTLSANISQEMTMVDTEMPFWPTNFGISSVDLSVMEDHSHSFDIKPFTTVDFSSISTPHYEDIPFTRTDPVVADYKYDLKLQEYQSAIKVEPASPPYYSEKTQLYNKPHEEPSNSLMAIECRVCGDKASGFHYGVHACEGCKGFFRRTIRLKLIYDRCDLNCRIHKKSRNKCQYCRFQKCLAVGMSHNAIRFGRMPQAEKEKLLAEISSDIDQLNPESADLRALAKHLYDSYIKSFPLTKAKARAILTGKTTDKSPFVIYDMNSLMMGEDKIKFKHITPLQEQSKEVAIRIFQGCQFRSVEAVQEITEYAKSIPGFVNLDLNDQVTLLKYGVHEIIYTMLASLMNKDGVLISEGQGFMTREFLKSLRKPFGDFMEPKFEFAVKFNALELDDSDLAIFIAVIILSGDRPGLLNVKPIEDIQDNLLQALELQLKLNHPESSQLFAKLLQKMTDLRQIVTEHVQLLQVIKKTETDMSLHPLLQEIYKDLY
As to the kind of experiment: Modulation of human PPARgamma-LBD expressed in african green monkey COS7 cells co-transfected with Gal4 assessed as activation of transactivation activity by luciferase assay. It is filed as cell-based, COS-7.

In data set [4] the target is T3, Prostaglandin G/H synthase 2 (Homo sapiens) (UniProt P35354).
T3 sequence (whole entry): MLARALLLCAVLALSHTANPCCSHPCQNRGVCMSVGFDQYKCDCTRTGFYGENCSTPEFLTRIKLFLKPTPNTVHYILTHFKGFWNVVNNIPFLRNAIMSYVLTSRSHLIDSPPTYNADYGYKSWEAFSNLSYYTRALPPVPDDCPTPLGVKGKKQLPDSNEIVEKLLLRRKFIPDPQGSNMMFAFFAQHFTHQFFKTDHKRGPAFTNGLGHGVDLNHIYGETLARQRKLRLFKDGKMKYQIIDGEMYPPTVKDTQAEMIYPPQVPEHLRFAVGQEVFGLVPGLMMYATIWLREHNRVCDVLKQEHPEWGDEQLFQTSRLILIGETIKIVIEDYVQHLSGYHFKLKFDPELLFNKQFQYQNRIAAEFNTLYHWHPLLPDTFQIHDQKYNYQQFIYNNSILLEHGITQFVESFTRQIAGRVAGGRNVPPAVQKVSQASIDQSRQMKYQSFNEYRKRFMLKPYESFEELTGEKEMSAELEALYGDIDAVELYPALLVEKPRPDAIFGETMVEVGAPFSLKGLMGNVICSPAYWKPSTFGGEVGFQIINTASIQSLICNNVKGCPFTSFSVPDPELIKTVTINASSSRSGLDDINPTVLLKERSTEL
As to the kind of experiment: Inhibition of human recombinant COX-2 assessed as residual activity by measuring formation of 12-HHT from arachidonic acid at 10 uM by HPLC analysis.

Data set [5] deals with T4, Peroxisome proliferator-activated receptor gamma (Homo sapiens) (UniProt P37231).
T4 sequence (whole entry): T2 sequence (P37231 whole entry)
Kind of data set: Modulation of human PPARgamma-LBD expressed in african green monkey COS7 cells co-transfected with Gal4 assessed as activation of transactivation activity by luciferase assay relative to pioglitazone. It is filed as cell-based. The note with it: COS-7.

In data set [6] the target is T5, Peroxisome proliferator-activated receptor alpha (Homo sapiens) (UniProt Q07869).
T5 sequence (whole entry): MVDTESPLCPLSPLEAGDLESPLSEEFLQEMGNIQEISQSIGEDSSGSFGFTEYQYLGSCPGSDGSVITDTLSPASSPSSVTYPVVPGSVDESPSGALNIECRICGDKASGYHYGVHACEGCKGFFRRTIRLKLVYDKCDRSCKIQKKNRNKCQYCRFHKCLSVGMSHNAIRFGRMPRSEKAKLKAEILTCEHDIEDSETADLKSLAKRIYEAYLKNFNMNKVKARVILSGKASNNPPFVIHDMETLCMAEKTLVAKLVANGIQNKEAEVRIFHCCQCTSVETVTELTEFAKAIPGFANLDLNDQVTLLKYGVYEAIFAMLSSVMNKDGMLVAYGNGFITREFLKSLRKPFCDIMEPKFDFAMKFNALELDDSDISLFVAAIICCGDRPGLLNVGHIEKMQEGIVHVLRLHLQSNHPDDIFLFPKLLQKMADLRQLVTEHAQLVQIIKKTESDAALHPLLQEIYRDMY
Kind of data set: Modulation of human PPARalpha-LBD expressed in african green monkey COS7 cells co-transfected with Gal4 assessed as activation of transactivation activity at 10 uM by luciferase assay. The format is cell-based. The note with it: COS-7.

Data set [7] has as its target T6, Prostaglandin G/H synthase 1 (Ovis aries) (UniProt P05979).
T6 sequence (whole entry): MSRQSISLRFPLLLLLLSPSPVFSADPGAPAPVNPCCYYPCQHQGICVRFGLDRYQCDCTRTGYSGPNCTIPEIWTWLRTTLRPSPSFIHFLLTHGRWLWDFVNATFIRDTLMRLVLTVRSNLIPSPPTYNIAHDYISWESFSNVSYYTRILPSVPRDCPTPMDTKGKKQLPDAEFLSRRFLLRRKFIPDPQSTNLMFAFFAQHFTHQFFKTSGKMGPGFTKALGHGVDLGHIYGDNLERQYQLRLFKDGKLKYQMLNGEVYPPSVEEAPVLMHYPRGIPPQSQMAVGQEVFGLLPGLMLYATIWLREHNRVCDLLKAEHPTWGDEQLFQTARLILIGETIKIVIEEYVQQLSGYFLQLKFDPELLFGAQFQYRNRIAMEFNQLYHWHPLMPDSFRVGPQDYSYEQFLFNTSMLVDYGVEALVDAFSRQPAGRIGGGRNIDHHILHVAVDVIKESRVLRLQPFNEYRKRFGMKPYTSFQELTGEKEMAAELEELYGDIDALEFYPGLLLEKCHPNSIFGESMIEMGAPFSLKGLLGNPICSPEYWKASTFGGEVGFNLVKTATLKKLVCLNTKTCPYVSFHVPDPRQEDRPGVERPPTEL
Kind of data set: Inhibition of ovine COX-1 assessed as residual activity by measuring formation of 12-HHT from arachidonic acid at 10 uM by HPLC analysis.

Data set [8] is described as follows: Modulation of gamma-secretase expressed in CHO cells co-expressing human APP and wild type human presenilin-1 assessed as increase of amyloid beta38 production by ELISA. The format is cell-based.

The source made the active and inactive calls. The rule behind the calls is not given here.

From ChEMBL document CHEMBL1817621, “SAR studies of acidic dual γ-secretase/PPARγ modulators” (Bioorg Med Chem, 2011) come the findings set out here.

For `CCCCC(Sc1nc(OCCC2CCCCC2)cc(OCCC2CCCCC2)n1)C(=O)O` (stereo unspecified), in the data set on CHO, the Activity result is reported as “Non-toxic”. In addition, the IC50 (as a rule, the point on the concentration scale where inhibition reaches its midpoint) in data set [1] turned out to be 6 µM.
`CCCCC(Cc1cc(OCCc2ccccc2)ccc1OCCc1ccccc1)C(=O)O` (stereo unspecified): the outcome in data set [2] and in data set [6] was inactive. Also, the Activity entry was “Non-toxic” with CHO, 66.5% in data set [4] and 63.8% in data set [7]. The EC50 (commonly the concentration giving half of the maximal effect) in data set [3] is 10.8 µM; in data set [8], 14.5 µM. Besides, the IC50 in data set [1] came out at 19.1 µM. In addition, the Emax in data set [5] was found to be 97%.
On to `CCCCC(Cc1ccc(OCCC2CCCCC2)c(OCCC2CCCCC2)c1)C(=O)O` (stereo unspecified), for which the outcome in data set [2] and in [6] was inactive. Also, the Activity result with CHO was “Non-toxic”; in data set [4], 79.1%; in [7] it was 73.8%. For the same compound, the EC50 is 1.1 µM in [3] and more than 40 µM in data set [8]. Moreover, in data set [1], the IC50 is more than 40 µM. Further, the Emax in data set [5] came to 69%.
Take `CCCCC(Cc1ccc(OCCC2CCCCC2)c(OCCc2ccccc2)c1)C(=O)O` (stereo unspecified): the outcome in data set [2] and in data set [6] was inactive. Moreover, the Activity result is “Non-toxic” with CHO, 91.5% in data set [4] and 69.1% in data set [7]. Also, the EC50 in data set [3] is 2.5 µM; in [8], more than 40 µM. For the same compound, the IC50 in [1] is more than 40 µM. The Emax in data set [5] was determined as 61%.
`CCCCC(Cc1ccc(OCCc2ccccc2)c(OCCc2ccccc2)c1)C(=O)O` (stereo unspecified): the outcome in data set [2] and in [6] was inactive. Also, the Activity result was “Non-toxic” in the data set with CHO, 86.4% in data set [4] and 95.8% in [7]. Also, the EC50 in data set [3] is 2.2 µM; in [8], more than 40 µM. For the same compound, the IC50 in [1] was more than 40 µM. Besides, the Emax in data set [5] was 100%.
For `CCCCC(Cc1ccc(OCCc2ccccc2)c(OCCC2CCCCC2)c1)C(=O)O` (stereo unspecified), the outcome in data set [2] and in data set [6] was inactive. Also, the Activity result with CHO was “Non-toxic”; in [4], 96.6%; in data set [7], 82%. Moreover, the EC50 is 1.5 µM in [3] and more than 40 µM in data set [8]. Further, in data set [1], the IC50 is more than 40 µM. Further, the Emax in data set [5] is 128%.
For `CCCCC(Oc1cc(OCCc2ccccc2)cc(OCCc2ccccc2)c1)C(=O)O` (stereo unspecified), the result in data set [2] and in [6] was inactive. In addition, the figures for the Activity entry (with CHO; in [4]; in data set [7]) were “Non-toxic”, 92.5% and 71.6%, respectively. For the same compound, the EC50 in [3] was 4.8 µM; in [8] it was 26.4 µM. The IC50 in data set [1] came to 33.7 µM. Also, the Emax in data set [5] was 46%.
With `CCCCC(Cc1cccc(OCCc2ccccc2)c1OCCc1ccccc1)C(=O)O` (stereo unspecified), the result in [2] and in data set [6] was inactive. Besides, the Activity result with CHO is “Non-toxic”; in data set [4] it was 89.6%; in data set [7], 66.1%. The EC50 in data set [3] is 3.7 µM; in data set [8], more than 40 µM. Besides, the IC50 in data set [1] is more than 40 µM. The Emax in [5] turned out to be 79%.
Regarding `CCCCC(Cc1cc(OCCc2ccccc2)cc(OCCc2ccccc2)c1)C(=O)O` (stereo unspecified), the result in data set [2] and in [6] was inactive. In addition, the Activity result in the data set on CHO was “Non-toxic”; in data set [4], 78.4%; in data set [7] it was 78.7%. Moreover, the EC50 turned out to be 4.7 µM in data set [3] and 28.1 µM in data set [8]. In addition, the IC50 in data set [1] was determined as 38.4 µM. For the same compound, in data set [5], the Emax was 71%.
With `CCCC/C(=C\c1cc(OCCc2ccccc2)ccc1OCCc1ccccc1)C(=O)O`, the outcome in data set [2] and in data set [6] was inactive. The figures for the Activity entry (in the data set on CHO; in data set [4]; in data set [7]) were “Non-toxic”, 94.4% and 68%, respectively. Further, the EC50 in data set [3] amounted to 1.8 µM; in data set [8], 6.7 µM. The IC50 in data set [1] was 15.4 µM. Besides, the Emax in data set [5] worked out at 47%.
Take `CCCCC(Sc1cc(OCCc2ccccc2)cc(OCCc2ccccc2)c1)C(=O)O` (stereo unspecified): the result in data set [2] and in [6] was inactive. In addition, the Activity result in the data set with CHO is “Non-toxic”; in [4], 110%; in data set [7] it was 71.3%. Further, the EC50 turned out to be 3.4 µM in [3] and 22.2 µM in data set [8]. In data set [1], the IC50 is 32.7 µM. The Emax in data set [5] stood at 73%.
As for `CCCC/C(=C\c1cc(OCCc2ccccc2)cc(OCCc2ccccc2)c1)C(=O)O`, the outcome in data set [2] and in [6] was inactive. In addition, the results for the Activity entry (in the data set on CHO; in data set [4]; in [7]) were “Non-toxic”, 81.4% and 81.4%, respectively. Also, the figures for the EC50 in data set [3] and in data set [8] were 7.8 µM and 27.3 µM, respectively. Moreover, the IC50 in data set [1] amounted to 37.9 µM. Also, the Emax in data set [5] was 95%.
